Assays:
Format in all cases: cell-based
HepG2 cells = assay: Cell viability assay (MTS) in HepG2 cells; conditions: 10 μM, mean, n = 3
Procedure: (§1) HepG2, Huh7, H1299, HT29, AGS and A549 cells were purchased from the Korean Cell Line Bank (Seoul, Korea) and HaCaT cells were obtained from Prof. Sohee Kwon (Yonsei University, Korea). Liver cancer cells (HepG2), human keratinocyte cells (HaCaT), and lung cancer cells (A549) were grown in DMEM high-glucose medium, liver cancer cells (Huh7) and non-small cell lung cancer cells (H1299) were grown in RPMI 1640, and gastric cancer cells (AGS) were grown in Coon’s modified F12 medium. All media were supplemented with 10% FBS, 100 Units/mL penicillin, and 100 μg/mL streptomycin. All cells were incubated at 37 °C, 5% CO2 and 95% humidity.
(§2) Cell viability assay was conducted using Cell Titer 96® AQueous One Solution Cell proliferation Assay kit (Promega, Madison, WI, USA). Five cancer cells and HaCaT cells were plated in 96-well microplates with growth medium for 24 h. When cell confluency reached ~30%, cells were treated with DMSO (vehicle) and test compounds. The medium and test compounds were replaced every 24 h. To measure cell viability, the cells were incubated with MTS solution for 1 h. The absorbance was measured by using Infinite M200 microplate reader (Tecan, Männedorf, Switzerland) at 490 nm.
(§3) Figure 2 Effect of 5r on cell viability in HepG2, Huh7, AGS, H1299, A549, HaCaT, NIH3T3, and HEK293T cells. (A–H) HepG2, Huh7, AGS, H1299, A549, HaCaT, NIH3T3, and HEK293T cells were cultured with 5r at the indicated concentrations for 72 h, and medium was replaced every 24 h with freshly added 5r. Cell viability was measured by MTS analysis (mean ± S.D., n = 5). * p < 0.05, ** p < 0.01, *** p < 0.001.

H1299 cells = assay: Cell viability assay (MTS) in H1299 cells; conditions: 10 μM, mean, n = 3
Procedure: as §1, §2, §3

HT29 cells = assay: Cell viability assay (MTS) in HT29 cells; conditions: mean, n = 3
Procedure: as §1, §2

AGS cells = assay: Cell viability assay (MTS) in AGS cells; conditions: 10 μM, mean, n = 3
Procedure: as §1, §2, §3

A549 cells = assay: Cell viability assay (MTS) in A549 cells; conditions: 10 μM, mean, n = 3
Procedure: as §1, §2, §3

Structure (SMILES)	% Inhibition of Cell Viability at 10 μM HepG2 (HepG2 cells) [%]	% Inhibition of Cell Viability at 10 μM H1299 (H1299 cells) [%]	% Inhibition of Cell Viability at 10 μM HT29 (HT29 cells) [%]	% Inhibition of Cell Viability at 10 μM AGS (AGS cells) [%]	% Inhibition of Cell Viability at 10 μM A549 (A549 cells) [%]
N#Cc1c2c3cccn3c(-c3ccccc3)nc2n2ccccc12 [Compound 5a, 5-Phenylpyrrolo[1′,2′:1,6]pyrimido[5,4-b]indolizine-12-carbonitrile]	85.0	81.5	<25	<25	<25
COc1ccc(-c2nc3c(c(C#N)c4ccccn43)c3cccn23)cc1 [Compound 5b, 5-(4-Methoxyphenyl)pyrrolo[1′,2′:1,6]pyrimido[5,4-b]indolizine-12-carbonitrile]	57.0	79.1	<25	<25	25.5
COc1ccc(-c2nc3c(c(C#N)c4ccccn43)c3cccn23)cc1OC [Compound 5c, 5-(3,4-Dimethoxyphenyl)pyrrolo[1′,2′:1,6]pyrimido[5,4-b]indolizine-12-carbonitrile]	76.7	94.0	44.0	56.0	47.1
COc1cc(OC)cc(-c2nc3c(c(C#N)c4ccccn43)c3cccn23)c1 [Compound 5d, 5-(3,5-Dimethoxyphenyl)pyrrolo[1′,2′:1,6]pyrimido[5,4-b]indolizine-12-carbonitrile]	57.3	83.4	<25	<25	<25
COc1cc(-c2nc3c(c(C#N)c4ccccn43)c3cccn23)cc(OC)c1OC [Compound 5e, 5-(3,4,5-Trimethoxyphenyl)pyrrolo[1′,2′:1,6]pyrimido[5,4-b]indolizine-12-carbonitrile]	37.7	89.0	<25	<25	25.3
N#Cc1c2c3cccn3c(-c3ccc4ccccc4c3)nc2n2ccccc12 [Compound 5f, 5-(Naphthalen-2-yl)pyrrolo[1′,2′:1,6]pyrimido[5,4-b]indolizine-12-carbonitrile]	92.5	88.4	<25	<25	<25
N#Cc1c2c3cccn3c(-c3cccc4ccccc34)nc2n2ccccc12 [Compound 5g, 5-(Naphthalen-1-yl)pyrrolo[1′,2′:1,6]pyrimido[5,4-b]indolizine-12-carbonitrile]	49.2	82.8	<25	<25	<25
N#Cc1c2c3cccn3c(-c3ccc(Cl)cc3)nc2n2ccccc12 [Compound 5h, 5-(4-Chlorophenyl)pyrrolo[1′,2′:1,6]pyrimido[5,4-b]indolizine-12-carbonitrile]	88.4	80.0	26.9	31.0	52.5
N#Cc1c2c3cccn3c(-c3ccc(Br)cc3)nc2n2ccccc12 [Compound 5i, 5-(4-Bromophenyl)pyrrolo[1′,2′:1,6]pyrimido[5,4-b]indolizine-12-carbonitrile]	87.4	92.1	<25	<25	36.7
COC(=O)c1ccc(-c2nc3c(c(C#N)c4ccccn43)c3cccn23)cc1 [Compound 5j, Methyl 4-(12-cyanopyrrolo[1′,2′:1,6]pyrimido[5,4-b]indolizin-5-yl)benzoate]	42.2	52.8	<25	<25	<25
N#Cc1c2c3cccn3c(-c3ccccn3)nc2n2ccccc12 [Compound 5k, 5-(Pyridin-2-yl)pyrrolo[1′,2′:1,6]pyrimido[5,4-b]indolizine-12-carbonitrile]	90.6	83.8	28.8	<25	29.0
N#Cc1c2c3cccn3c(-c3cc4ccccc4[nH]3)nc2n2ccccc12 [Compound 5l, 5-(1H-Indol-2-yl)pyrrolo[1′,2′:1,6]pyrimido[5,4-b]indolizine-12-carbonitrile]	99.2	62.3	58.6	<25	46.9
N#Cc1c2c3cccn3c(-c3ccco3)nc2n2ccccc12 [Compound 5m, 5-(Furan-2-yl)pyrrolo[1′,2′:1,6]pyrimido[5,4-b]indolizine-12-carbonitrile]	64.0	81.9	<25	<25	<25
N#Cc1c2c3cccn3cnc2n2ccccc12 [Compound 8, Pyrrolo[1′,2′:1,6]pyrimido[5,4-b]indolizine-12-carbonitrile]	<25	<25	<25	<25	<25
N#Cc1c2c3[nH]c4ccccc4c3c(-c3ccccc3)nc2n2ccccc12 [Compound 10a, 7-Phenyl-12H-indolizino[2′,3′:5,6]pyrido[4,3-b]indole-13-carbonitrile]	<25	68.8	61.2	48.4	45.9
COc1ccc(-c2nc3c(c(C#N)c4ccccn43)c3[nH]c4ccccc4c23)cc1 [Compound 10b, 7-(4-Methoxyphenyl)-12H-indolizino[2′,3′:5,6]pyrido[4,3-b]indole-13-carbonitrile]	<25	<25	<25	<25	<25
N#Cc1c2c3[nH]c4ccccc4c3c(-c3ccc(Br)cc3)nc2n2ccccc12 [Compound 10c, 7-(4-Bromophenyl)-12H-indolizino[2′,3′:5,6]pyrido[4,3-b]indole-13-carbonitrile]	39.6	<25	<25	<25	<25

— PMC9694334, “Synthesis and Biological Evaluation of a Fused Structure of Indolizine and Pyrrolo[1,2-c]pyrimidine: Identification of Its Potent Anticancer Activity against Liver Cancer Cells” (Pharmaceuticals, 2022)
